Assay results published in US11795423B2, “Micro-fabricated multi-well chips for long term automated imaging of C. elegans growth and behavior” (THE TRUSTEES OF THE UNIVERSITY OF PENNSYLVANIA, priority 2014, dated 2023).

Test system: C. elegans
Procedure: NGM buffer is NGM agar without agar, peptone, or cholesterol.
A moat solution of 100 mM CuSO4 was prepared, which was approximately in osmotic equilibrium with the agar medium. The moat solution was added to the moats by pipette.

O=S(=O)([O-])[O-].[Cu+2] [copper sulfate]
worms escaped (after 3 days, moat containing 100 mM copper sulfate, NGM liquid moat as comparison (about 20%)): 5%
preventing animals from leaving their wells (fraction of worms escaping wells as a function of time) (moat containing 100 mM CuSO4, n=96, versus moat containing NGM buffer, FIG. 7b): superior
